{"source": "patent US20260000632A1", "about": "“STRUCTURALLY MODIFIED FATTY ACIDS FOR IMPROVING GLYCEMIC CONTROL AND TREATING INFLAMMATORY BOWEL DISEASE” (Northsea Therapeutics B.V., priority 2018, published 2026)", "key": {"active GLP-1": {"tested_on": "active GLP-1", "assay": "Active GLP-1 during oral glucose tolerance test (OGTT) and at 24 h in lean male SPD rats", "type": "in vivo, rat", "experimental": "(§1) To establish the acute effects of oral administration of Compound A and Compound B upon active GLP-1 and insulin concentrations, lean (about 300 g) male Sprague-Dawley (SPD) rats were divided into groups (n=6-8) and fed 74 and 84 mg/kg body weight of Compound A or Compound B respectively, either with or without concurrent administration of a dipeptidyl peptidase 4 (DPP-4) inhibitor 60 minutes prior to an oral glucose tolerance test (OGTT) as outlined below. Parallel groups receiving either corn oil alone (corn oil+vehicle, n=10) or corn oil and a DPP-4 inhibitor (“DPP-4 i”) (corn oil+ (DPP-4 i), n=10) were included as controls. The DPP-4 inhibitor was linagliptin.\n(§2) A second oral dose of 74 and 84 mg/kg bodyweight of Compound A or Compound B respectively was administered at 240 minutes and ad lib feeding was initiated. A second dose of DPP-4 inhibitor was administered at 480 mins prior to lights out. Blood samples were collected at 24 h for measurement of active GLP-1 and insulin. All values are mean, figures depict mean values (SEM)."}, "plasma insulin": {"tested_on": "plasma insulin", "assay": "Plasma insulin at 24 h in lean male SPD rats", "type": "in vivo, rat", "conditions": "Compound A 74 mg/kg or Compound B 84 mg/kg oral, non-significant", "experimental": "as §1, §2"}, "ob/ob mice [1]": {"tested_on": "ob/ob mice", "assay": "Glucose tolerance after 21-day treatment in high-fat diet fed ob/ob mice", "type": "in vivo, mouse", "conditions": "112 mg/kg once-daily via diet, 21 days", "experimental": "This study was carried out to assess the effects of chronic treatment with Compound B or Compound A on glucose tolerance in a T2DM rodent model.\nFor assessing the effects of Compound A, ob/ob mice were fed a high-fat diet (comprising 2% cholesterol, 40% fat (containing 18% trans-fatty acids), 20% fructose) for 15 weeks starting at age 5 weeks. […] After 21 days the mice received a 2 g/kg oral glucose load. After the oral glucose load, plasma glucose was measured at multiple time points from 0-240 minutes."}, "ob/ob mice [2]": {"tested_on": "ob/ob mice", "assay": "Chronic treatment in ob/ob mice: basal parameters after 4 weeks", "type": "in vivo, mouse", "conditions": "4 weeks diet admix, 4 h fast, Compound A 135, fenofibrate 100, pioglitazone 30 mg/kg bw/d, mean ± SEM; for Plasma adiponectin: control 4.3 ± 0.4; for Blood HbA1c: control 8.4 ± 0.4; for HOMA-IR: control 65.7 ± 9.8; for Plasma insulin: control 73.2 ± 13.6; for Plasma ALT: control 271.4 ± 18.8; for Blood glucose: control 380.8 ± 26.3", "experimental": "(§3) Mice were fed a standard low-fat (7% w/w fat) diet. After 4-weeks, the mice were fasted for 4 hours and the effects of Compound A were assessed. Assessment of the effects of Compound A included basal levels of blood glucose, plasma insulin, HbA1c levels, and homeostatic model assessment of insulin resistance (HOMA-IR). HOMA-IR is an assessment of insulin resistance and is calculated by the following formula: fasting insulin (micro U/L)×fasting glucose […]/22.5."}, "ob/ob mice [3]": {"tested_on": "ob/ob mice", "assay": "Oral glucose (2 g/kg) tolerance test after 5 weeks treatment in ob/ob mice", "type": "in vivo, mouse", "conditions": "for Plasma glucose AUC (0-120 min) / Plasma glucose, 0 min / Plasma glucose, 15 min / Plasma glucose, 30 min / Plasma glucose, 45 min / Plasma glucose, 60 min / Plasma glucose, 120 min: OGTT 2 g/kg, mean", "experimental": "as §3\nAfter 5 weeks, an oral glucose (2 g/kg) tolerance test was performed after a 4 hour fast."}, "atherogenic lipids [4]": {"tested_on": "atherogenic lipids", "conditions": "humans; cited from earlier work"}, "atherogenic lipids [5]": {"tested_on": "atherogenic lipids", "conditions": "APOE*3.CETP mice; cited from earlier work"}, "GLP-1": {"tested_on": "GLP-1", "conditions": "direct colonic delivery, rodents; cited from earlier work"}, "[6]": {"conditions": "15 mg/kg bw/d diet admix 5 weeks"}, "[7]": {"conditions": "45 mg/kg bw/d diet admix 5 weeks"}, "[8]": {"conditions": "135 mg/kg bw/d diet admix 5 weeks"}, "[9]": {"conditions": "reference drugs: fenofibrate 100, pioglitazone 30 mg/kg bw/d diet admix 5 weeks"}}, "note": "Read-outs that look alike come from different tables or passages of the source.", "data": [{"smiles": "CC/C=C\\C/C=C\\C/C=C\\C/C=C\\C/C=C\\CCCCOC(CC)C(=O)O", "note": "(centres unmarked) [Compound A, 2-(((5Z,8Z,11Z,14Z,17Z)-icosa-5,8,11,14,17-pentaen-1-yl)oxy)butanoic acid]", "values": [{"measurement": "Effect on active GLP-1 concentration at 24 h versus corn oil+vehicle", "setting": "active GLP-1; in combination with DPP4 inhibitor, Compound A 74 mg/kg or Compound B 84 mg/kg oral, two doses", "result": "significantly (p<0.05) increased"}, {"measurement": "Increase in plasma insulin concentration at 24 h versus corn oil+vehicle and corn oil+DPP4 inhibitor", "setting": "plasma insulin; compound alone", "result": 25, "unit": "%"}, {"measurement": "Increase in plasma insulin concentration at 24 h versus corn oil+vehicle and corn oil+DPP4 inhibitor", "setting": "plasma insulin; in combination with DPP4 inhibitor", "result": 25, "unit": "%"}, {"measurement": "Glucose tolerance from 15 minutes through 90 minutes post-glucose load compared to vehicle", "setting": "ob/ob mice [1]", "result": "significantly improved glucose tolerance"}, {"measurement": "AUC glucose", "setting": "ob/ob mice [1]; p<0.01", "result": "significantly reduced AUC glucose"}, {"measurement": "Plasma adiponectin", "setting": "ob/ob mice [2]", "result": "3.8 ± 0.4", "unit": "µg/mL"}, {"measurement": "Blood HbA1c", "setting": "ob/ob mice [2]", "result": "4.5 ± 0.1", "unit": "%"}, {"measurement": "HOMA-IR", "setting": "ob/ob mice [2]", "result": "8.6 ± 3.6"}, {"measurement": "Plasma insulin", "setting": "ob/ob mice [2]", "result": "17.6 ± 6.8", "unit": "ng/mL"}, {"measurement": "Plasma ALT", "setting": "ob/ob mice [2]", "result": "180.6 ± 14.6", "unit": "U/L"}, {"measurement": "Blood glucose", "setting": "ob/ob mice [2]", "result": "191.5 ± 6.1", "unit": "mg/dL"}, {"measurement": "Plasma glucose AUC (0-120 min)", "setting": "ob/ob mice [3]; [6]", "result": 1760, "unit": "mM·min"}, {"measurement": "Plasma glucose, 0 min", "setting": "ob/ob mice [3]; [6]", "result": 11.4, "unit": "mM"}, {"measurement": "Plasma glucose, 15 min", "setting": "ob/ob mice [3]; [6]", "result": 37.5, "unit": "mM"}, {"measurement": "Plasma glucose, 30 min", "setting": "ob/ob mice [3]; [6]", "result": 34.4, "unit": "mM"}, {"measurement": "Plasma glucose, 45 min", "setting": "ob/ob mice [3]; [6]", "result": 28.0, "unit": "mM"}, {"measurement": "Plasma glucose, 60 min", "setting": "ob/ob mice [3]; [6]", "result": 25.5, "unit": "mM"}, {"measurement": "Plasma glucose, 120 min", "setting": "ob/ob mice [3]; [6]", "result": 19.6, "unit": "mM"}, {"measurement": "Plasma glucose AUC (0-120 min)", "setting": "ob/ob mice [3]; [7]", "result": 1110, "unit": "mM·min"}, {"measurement": "Plasma glucose, 0 min", "setting": "ob/ob mice [3]; [7]", "result": 13.3, "unit": "mM"}, {"measurement": "Plasma glucose, 15 min", "setting": "ob/ob mice [3]; [7]", "result": 36.5, "unit": "mM"}, {"measurement": "Plasma glucose, 30 min", "setting": "ob/ob mice [3]; [7]", "result": 30.1, "unit": "mM"}, {"measurement": "Plasma glucose, 45 min", "setting": "ob/ob mice [3]; [7]", "result": 24.5, "unit": "mM"}, {"measurement": "Plasma glucose, 60 min", "setting": "ob/ob mice [3]; [7]", "result": 21.0, "unit": "mM"}, {"measurement": "Plasma glucose, 120 min", "setting": "ob/ob mice [3]; [7]", "result": 15.3, "unit": "mM"}, {"measurement": "Plasma glucose AUC (0-120 min)", "setting": "ob/ob mice [3]; [8]", "result": 816, "unit": "mM·min"}, {"measurement": "Plasma glucose, 0 min", "setting": "ob/ob mice [3]; [8]", "result": 9.2, "unit": "mM"}, {"measurement": "Plasma glucose, 15 min", "setting": "ob/ob mice [3]; [8]", "result": 27.7, "unit": "mM"}, {"measurement": "Plasma glucose, 30 min", "setting": "ob/ob mice [3]; [8]", "result": 22.1, "unit": "mM"}, {"measurement": "Plasma glucose, 45 min", "setting": "ob/ob mice [3]; [8]", "result": 14.6, "unit": "mM"}, {"measurement": "Plasma glucose, 60 min", "setting": "ob/ob mice [3]; [8]", "result": 13.4, "unit": "mM"}, {"measurement": "Plasma glucose, 120 min", "setting": "ob/ob mice [3]; [8]", "result": 12.8, "unit": "mM"}, {"measurement": "Lowering of glucose levels in oral glucose tolerance test", "setting": "ob/ob mice [3]; 15, 45, 135 mg/kg bw/d diet admix 5 weeks", "result": "dose-dependent response in lowering glucose levels"}, {"measurement": "Effect on atherogenic lipids", "setting": "atherogenic lipids [4]", "result": "significantly reduce atherogenic lipids"}, {"measurement": "Effect on atherogenic lipids", "setting": "atherogenic lipids [5]", "result": "significantly reduce atherogenic lipids"}]}, {"smiles": "CC/C=C\\C/C=C\\C/C=C\\C/C=C\\C/C=C\\C/C=C\\CCC(=O)O", "note": "[DHA]", "values": [{"measurement": "GLP-1 secretion", "setting": "GLP-1", "result": "able to induce GLP-1 secretion"}]}, {"smiles": "CC#CCn1c(N2CCC[C@@H](N)C2)nc2c1c(=O)n(Cc1nc(C)c3ccccc3n1)c(=O)n2C", "note": "[DPP4 inhibitor, linagliptin, reference compound]", "values": [{"measurement": "Effect on active GLP-1 concentration at 24 h", "setting": "active GLP-1; corn oil+DPP4 inhibitor alone", "result": "no significant effect"}, {"measurement": "Effect on active GLP-1 (AUC 0-60 mins) versus corn oil alone", "setting": "active GLP-1; corn oil+DPP4 inhibitor alone, OGTT", "result": "no significant effect"}]}, {"smiles": "CC(C)OC(=O)C(C)(C)Oc1ccc(C(=O)c2ccc(Cl)cc2)cc1", "note": "[Fenofibrate, fenofibrate, reference compound]", "values": [{"measurement": "Plasma adiponectin", "setting": "ob/ob mice [2]", "result": "5.0 ± 0.4", "unit": "µg/mL"}, {"measurement": "Blood HbA1c", "setting": "ob/ob mice [2]", "result": "4.8 ± 0.2", "unit": "%"}, {"measurement": "HOMA-IR", "setting": "ob/ob mice [2]", "result": "20.3 ± 5.9"}, {"measurement": "Plasma insulin", "setting": "ob/ob mice [2]", "result": "35.5 ± 9.0", "unit": "ng/mL"}, {"measurement": "Plasma ALT", "setting": "ob/ob mice [2]", "result": "224.0 ± 27.4", "unit": "U/L"}, {"measurement": "Blood glucose", "setting": "ob/ob mice [2]", "result": "220.3 ± 8.1", "unit": "mg/dL"}, {"measurement": "Plasma glucose AUC (0-120 min)", "setting": "ob/ob mice [3]; [9]", "result": 1420, "unit": "mM·min"}, {"measurement": "Plasma glucose, 0 min", "setting": "ob/ob mice [3]; [9]", "result": 15.4, "unit": "mM"}, {"measurement": "Plasma glucose, 15 min", "setting": "ob/ob mice [3]; [9]", "result": 35.9, "unit": "mM"}, {"measurement": "Plasma glucose, 30 min", "setting": "ob/ob mice [3]; [9]", "result": 35.9, "unit": "mM"}, {"measurement": "Plasma glucose, 45 min", "setting": "ob/ob mice [3]; [9]", "result": 30.6, "unit": "mM"}, {"measurement": "Plasma glucose, 60 min", "setting": "ob/ob mice [3]; [9]", "result": 28.2, "unit": "mM"}]}, {"smiles": "CCc1ccc(CCOc2ccc(CC3SC(=O)NC3=O)cc2)nc1", "note": "(centres unmarked) [Pioglitazone, pioglitazone, reference compound]", "values": [{"measurement": "Blood HbA1c", "setting": "ob/ob mice [2]", "result": "3.8 ± 0.1", "unit": "%"}, {"measurement": "HOMA-IR", "setting": "ob/ob mice [2]", "result": "2.1 ± 0.3"}, {"measurement": "Plasma insulin", "setting": "ob/ob mice [2]", "result": "5.7 ± 0.8", "unit": "ng/mL"}, {"measurement": "Plasma ALT", "setting": "ob/ob mice [2]", "result": "257.3 ± 15.5", "unit": "U/L"}, {"measurement": "Blood glucose", "setting": "ob/ob mice [2]", "result": "147.5 ± 3.1", "unit": "mg/dL"}, {"measurement": "Plasma glucose AUC (0-120 min)", "setting": "ob/ob mice [3]; [9]", "result": 879, "unit": "mM·min"}, {"measurement": "Plasma glucose, 0 min", "setting": "ob/ob mice [3]; [9]", "result": 7.8, "unit": "mM"}, {"measurement": "Plasma glucose, 15 min", "setting": "ob/ob mice [3]; [9]", "result": 24.2, "unit": "mM"}, {"measurement": "Plasma glucose, 30 min", "setting": "ob/ob mice [3]; [9]", "result": 18.5, "unit": "mM"}, {"measurement": "Plasma glucose, 45 min", "setting": "ob/ob mice [3]; [9]", "result": 17.3, "unit": "mM"}, {"measurement": "Plasma glucose, 60 min", "setting": "ob/ob mice [3]; [9]", "result": 15.2, "unit": "mM"}, {"measurement": "Plasma glucose, 120 min", "setting": "ob/ob mice [3]; [9]", "result": 10.9, "unit": "mM"}]}]}
